Article PMC10505147, “Ustilago maydis PR-1-like protein has evolved two distinct domains for dual virulence activities” (Nature Communications, 2023)

What was measured:
[1] = biological target: T1, CatB3 (Cathepsin B-like 3) (Zea mays, UniProt A0A804QEY3); format: biochemical; conditions: 0.5 mM inhibitor, substrate UmPR-1La-HA culture supernatant, 50 mM sodium acetate, 10 mM DTT, pH 5.5, 28 °C
T1 construct: gene LOC100283781; untagged, expressed with signal peptide in Nicotiana benthamiana by agroinfiltration, purified from apoplastic fluid by size exclusion

[2] = biological target: T2, UmPR-1La (PR-1La) (Mycosarcoma maydis, UniProt A0A0D1E5M0); assay: intrinsic tryptophan fluorescence; format: binding; conditions: 0.25 µM protein, 50 mM sodium acetate pH 5.5, room temperature, 15 min
T2 construct: gene UMAG_01204; His-tagged full-length protein without signal peptide (PR-1La 24-279), expressed in E. coli Shuffle T7, Ni-NTA and size exclusion
T2 sequence (A0A0D1E5M0 entry or part of it): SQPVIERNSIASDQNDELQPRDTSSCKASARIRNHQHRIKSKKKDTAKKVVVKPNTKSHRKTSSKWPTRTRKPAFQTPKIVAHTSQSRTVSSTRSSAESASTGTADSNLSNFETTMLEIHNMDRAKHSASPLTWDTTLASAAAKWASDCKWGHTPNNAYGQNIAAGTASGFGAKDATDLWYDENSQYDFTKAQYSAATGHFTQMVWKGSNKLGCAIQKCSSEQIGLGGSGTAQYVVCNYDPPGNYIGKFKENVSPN

T1 sequence (A0A804QEY3 entry or part of it): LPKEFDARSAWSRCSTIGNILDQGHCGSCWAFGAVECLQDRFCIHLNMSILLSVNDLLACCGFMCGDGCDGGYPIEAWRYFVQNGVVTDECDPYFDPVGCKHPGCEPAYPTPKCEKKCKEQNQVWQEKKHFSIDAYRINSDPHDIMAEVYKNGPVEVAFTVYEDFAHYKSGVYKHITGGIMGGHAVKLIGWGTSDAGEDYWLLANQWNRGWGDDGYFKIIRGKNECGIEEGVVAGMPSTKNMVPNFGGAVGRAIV

## CC(C)C[C@H](NC(=O)[C@H]1O[C@@H]1C(=O)O)C(=O)NCCCCN=C(N)N [E64]
[1]
  inhibition of UmPR-1La cleavage (immunoblot): The activity of CatB3 was blocked by E64 (Fig. 5b)

## COc1cc(/C=C/CO)ccc1O [coniferyl alcohol]
[2]
  intrinsic tryptophan fluorescence: both versions of the PR-1La proteins responded to CA by causing a shift

## COc1cc(/C=C/C(=O)O)ccc1O [ferulic acid]
[2]; 5 µM or varied ligand, caveolin-binding motif site
  intrinsic tryptophan fluorescence: the intrinsic fluorescence intensity of PR-1La decreased in an FA-concentration-dependent manner
